Measurements as given in ChEMBL document CHEMBL1201862, “PubChem BioAssay data set” (2004).
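Where inhibition never reached the appropriate level, the endpoint shown equals the highest concentration tested. Otherwise, values were interpolated linearly from a five-concentration, 48-hour dose response in 96-well plates. Here, GI50 denotes the concentration required for 50% inhibition of growth.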 The source made the active and inactive calls. No stated cut-off is given here; in the data, active = GI50 up to about 1.1 µM and inactive = higher.

Legend:
Test in all cases: NCI tumour cell line growth inhibition, 48 h
SF-295 = test system: SF-295
SF-268 = test system: SF-268
RXF 393 = test system: RXF 393
UO-31 = test system: UO-31
OVCAR-5 = test system: OVCAR-5
CCRF-CEM = test system: CCRF-CEM
TK-10 = test system: TK-10
PC-3 = test system: PC-3
NCI-H23 = test system: NCI-H23
SNB-19 = test system: SNB-19
MDA-MB-231 = test system: MDA-MB-231
HT-29 = test system: HT-29
SN12C = test system: SN12C
NCI-H460 = test system: NCI-H460
HOP-92 = test system: HOP-92
SK-MEL-28 = test system: SK-MEL-28
CAKI-1 = test system: CAKI-1
OVCAR-4 = test system: OVCAR-4
UACC-257 = test system: UACC-257

Measured: GI50

Cc1ccc(SC2C(=O)C3CC(OCc4ccccc4)C2(C)C3(C)C)cc1 (stereo not drawn)
inactive: SF-295 > 100 µM | SF-268 > 100 µM | RXF 393 52 µM | UO-31 > 100 µM | OVCAR-5 > 100 µM | CCRF-CEM 73.8 µM | TK-10 > 100 µM | PC-3 12.4 µM | NCI-H23 46.8 µM | SNB-19 > 100 µM | MDA-MB-231 > 100 µM | HT-29 41.9 µM | SN12C > 100 µM | NCI-H460 > 100 µM | HOP-92 29.6 µM | SK-MEL-28 > 100 µM

C=C(C)[C@H]1CC(=O)/C(C)=C\CC/C(C)=C/CC[C@@]2(C)O[C@@H]2C1
inactive: SF-295 34.3 µM | SF-268 23 µM | UO-31 20.7 µM | OVCAR-5 35.4 µM | CCRF-CEM 35.1 µM | TK-10 31.9 µM | PC-3 24.8 µM | CAKI-1 1.99 µM | NCI-H23 22.3 µM | SNB-19 59.8 µM | MDA-MB-231 34.2 µM | HT-29 16.3 µM | SN12C 20.8 µM | NCI-H460 16.8 µM | HOP-92 48.5 µM | OVCAR-4 22 µM | UACC-257 81.7 µM | SK-MEL-28 19.2 µM

O=C(NN=C1CCCCC1)Nc1ccccc1Cl
inactive: SF-295 33.3 µM | SF-268 41.1 µM | UO-31 61.9 µM | OVCAR-5 54.2 µM | CCRF-CEM 42 µM | TK-10 > 100 µM | PC-3 > 100 µM | CAKI-1 92.7 µM | NCI-H23 57.8 µM | SNB-19 64.3 µM | MDA-MB-231 > 100 µM | HT-29 36.3 µM | SN12C 57.5 µM | NCI-H460 42.5 µM | HOP-92 23.6 µM | OVCAR-4 > 100 µM | UACC-257 78.7 µM | SK-MEL-28 79.3 µM

Cn1nc2n(c1=O)CCCN2
inactive: SF-295 > 100 µM | SF-268 > 100 µM | RXF 393 > 100 µM | OVCAR-5 > 100 µM | CCRF-CEM > 100 µM | TK-10 > 100 µM | PC-3 > 100 µM | NCI-H23 > 100 µM | SNB-19 > 100 µM | MDA-MB-231 > 100 µM | HT-29 > 100 µM | SN12C > 100 µM | NCI-H460 > 100 µM | HOP-92 > 100 µM | OVCAR-4 > 100 µM | UACC-257 > 100 µM | SK-MEL-28 > 100 µM

COc1ccc(C2OC(=O)c3c2ccc2ccccc32)c(C)c1 (stereo not drawn)
inactive: RXF 393 2.69 µM | UO-31 5.4 µM | OVCAR-5 13.2 µM | TK-10 2.94 µM | PC-3 3.27 µM | NCI-H23 5.41 µM | SNB-19 4.8 µM | MDA-MB-231 3 µM | HT-29 3.37 µM | SN12C 1.21 µM | NCI-H460 3.3 µM | HOP-92 8.04 µM | UACC-257 3.78 µM | SK-MEL-28 2.92 µM
